In EP0813867B1, “Retroviral protease inhibitors” (priority 1990, dated 1992):
Where two headings read alike, the source gives them in different places. Blank lines part the entries; values can stand above or below the compound they belong to.

What was measured:
CEM cells = test: Intrinsic toxicity of the test compound in CEM cells without virus (MTT); assay type: cell-based; conditions: Table 14, medium without virus, 7 days
Excerpt: Methods 20, 309-321 (1988).

HIV-1 = test: HIV inhibition assay of acutely infected CEM cells (tetrazolium based colorimetric, MTT); conditions: Human immunodeficiency virus 1, CCRF-CEM, 168 h
Experimental: The HIV inhibition assay method of acutely infected cells is an automated tetrazolium based colorimetric assay essentially that reported by Pauwles et al, J. Virol. […] Assays were performed in 96-well tissue culture plates. CEM cells, a CD4^+ cell line, were grown in RPMI-1640 medium (Gibco) supplemented with a 10% fetal calf serum and were then treated with polybrene (2µg/ml). An 80 µl volume of medium containing 1 x 10^4 cells was dispensed into each well of the tissue culture plate. To each well was added a 100µl volume of test compound dissolved in tissue culture medium (or medium without test compound as a control) to achieve the desired final concentration and the cells were incubated at 37°C for 1 hour. A frozen culture of HIV-1 was diluted in culture medium to a concentration of 5 x 10^4 TCID50 per ml (TCID50 = the dose of virus that infects 50% of cells in tissue culture), and a 20µL volume of the virus sample (containing 1000 TCID50 of virus) was added to wells containing test compound and to wells containing only medium (infected control cells). Several wells received culture medium without virus (uninfected control cells). Likewise, the intrinsic toxicity of the test compound was determined by adding medium without virus to several wells containing test compound.
In experiments 2 and 4 the final concentrations of test compounds were 1, 10, 100 and 500 µg/ml. Either azidothymidine (AZT) or dideoxyinosine (ddI) was included as a positive drug control. […] DMSO was added to all control wells at an appropriate concentration.
Following the addition of virus, cells were incubated at 37°C in a humidified, 5% CO2 atmosphere for 7 days. Test compounds could be added on days 0, 2 and 5 if desired. On day 7, post-infection, the cells in each well were resuspended and a 100µl sample of each cell suspension was removed for assay. A 20µL volume of a 5 mg/ml solution of 3-(4,5-dimethylthiazol-2-yl)-2,5-diphenyltetrazolium bromide (MTT) was added to each 100µL cell suspension, and the cells were incubated for 4 hours at 27°C in a 5% CO2 environment. […] To each sample was added 100µl of 10% sodium dodecylsulfate in 0.01 N HCl to lyse the cells, and samples were incubated overnight. The absorbance at 590 nm was determined for each sample using a Molecular Devices microplate reader. Absorbance values for each set of wells is compared to assess viral control infection, uninfected control cell response as well as test compound by cytotoxicity and antiviral efficacy.

HIV protease = target: T1, HIV protease (Human immunodeficiency virus type 1 group M subtype B, UniProt P04585); test: biochemical; assay type: biochemical
T1 construct: HIV protease is diluted in the assay buffer to a final enzyme concentration of 12.3 nanomolar, based on a molecular weight of 10,780
Experimental: The enzyme method is described below. The substrate is 2-aminobenzoyl-Ile-Nle-Phe(p-NO2)-Gln-ArgNH2. The positive control is MVT-101 (Miller, M. et al, Science, 246, 1149 (1989)] The assay conditions are as follows:
The above described substrate is dissolved in DMSO, then diluted 10 fold in assay buffer. Final substrate concentration in the assay is 80 µM.
HIV protease is diluted in the assay buffer to a final enzyme concentration of 12.3 nanomolar, based on a molecular weight of 10,780.
The final concentration of DMSO is 14% and the final concentration of glycerol is 18%. The test compound is dissolved in DMSO and diluted in DMSO to 10x the test concentration; 10µl of the enzyme preparation is added, the materials mixed and then the mixture is incubated at ambient temperature for 15 minutes. The enzyme reaction is initiated by the addition of 40µl of substrate. The increase in fluorescence is monitored at 4 time points (0, 8, 16 and 24 minutes) at ambient temperature. Each assay is carried out in duplicate wells.

[1] = IC50, Table 13, 12.3 nanomolar enzyme, 80 µM substrate, pH 6.4, ambient temperature
[2] = IC50, Table 14, above-described enzyme assay
[3] = Table 13, 12.3 nanomolar enzyme, 80 µM substrate, pH 6.4, ambient temperature, read-out: IC50

Structure (SMILES): CCCCNC(=O)N(CC(C)C)C[C@@H](O)[C@H](Cc1ccccc1)NC(=O)[C@H](CC(N)=O)NC(=O)OCc1ccccc1
TD50 (CEM cells): 170 to 180 µM
EC50 (HIV-1): 17 µM

Structure (SMILES): CC(C)CCN(C[C@@H](O)[C@H](Cc1ccccc1)NC(=O)[C@H](CC(N)=O)NC(=O)OCc1ccccc1)C(=O)NC(C)(C)C (relative stereo) [Compound 5a, Butanediamide, N^1-[3-[[[(1,1-dimethylethyl)amino]carbonyl](3,3-dimethylpropyl)amino]-2-hydroxy-1-(phenylmethyl)propyl]-2-[(N-benzyloxycarbonyl)amio], [1S-[1R*(R*),2S*]]-]
IC50 (HIV protease; Table 13, 12.3 nanomolar enzyme, 80 µM substrate, pH 6.4, ambient temperature): 0.018 µM

Structure (SMILES): CC(C)CN(CC(O)C(Cc1ccccc1)NC(=O)C(CC(N)=O)NC(=O)c1ccc2ccccc2n1)C(=O)NC(C)(C)C (stereo not drawn) [Compound 1b, Butanediamide, N^1-[3-[[[(1,1-dimethylethyl)amino]carbonyl](2-methylpropyl)amino]-2-hydroxy-1-(phenylmethyl)propyl]-2-[(2-quinolinylcarbonyl)amino]-, [1S-[1R*(R*),2S*]]-]
IC50 (HIV protease; [1]): 0.0071 µM
IC50 (HIV protease; [2]): 0.007 µM
TD50 (CEM cells): 16 µM
EC50 (HIV-1): 0.01 µM

Structure (SMILES): CC(C)CCN(C[C@@H](O)[C@H](Cc1ccccc1)NC(=O)[C@H](CC(N)=O)NC(=O)OCc1ccccc1)C(=O)NC(C)(C)C [Compound 2a, Butanediamide, N^1-[3-[[[(1,1-dimethylethyl)amino]carbonyl](3-methylbutyl)amino]-2-hydroxy-1-(phenylmethyl)propyl]-2-[(N-benzyloxycarbonyl)amino], [1S-[1R*(R*),2S*]]-]
IC50 (HIV protease; [3]): 0.0134 µM

Structure (SMILES): CC(C)CCN(CC(O)C(Cc1ccccc1)NC(=O)C(CC(N)=O)NC(=O)c1ccc2ccccc2n1)C(=O)NC(C)(C)C (stereo not drawn) [Compound 2b, Butanediamide, N^1-[3-[[[(1,1-dimethylethyl)amino]carbonyl](3-methylbutyl)amino]-2-hydroxy-1-(phenylmethyl)propyl]-2-[(2-quinolinylcarbonyl)amino]-, [1S-[1R*(R*),2S*]]-]
IC50 (HIV protease; [1]): 0.0032 µM

IC50 (HIV protease; [3]): 0.031 µM
Structure (SMILES): CC(C)(C)NC(=O)N(Cc1ccc2ccccc2c1)C[C@@H](O)[C@H](Cc1ccccc1)NC(=O)[C@H](CC(N)=O)NC(=O)OCc1ccccc1 [Compound 3a, Butanediamide, N^1-[3-[[[(1,1-dimethylethyl)amino]carbonyl](2-naphthylmethyl)amino]-2-hydroxy-1-(phenylmethyl)propyl]-2-[(N-benzyloxycarbonyl)amino]-, [1S-[1R*(R*), 2S*]]-]

Structure (SMILES): CC(C)(C)NC(=O)N(Cc1ccc2ccccc2c1)CC(O)C(Cc1ccccc1)NC(=O)C(CC(N)=O)NC(=O)c1ccc2ccccc2n1 (stereo not drawn) [Compound 3b, Butanediamide, N^1-[3-[[[(1,1-dimethylethyl)amino]carbonyl](2-naphthylmethyl)amino]-2-hydroxy-1-(phenylmethyl)propyl]-2-[(2-quinolinylcarbonyl)amino]-, [1S-[1R*(R*),2S*]]-]
IC50 (HIV protease; [3]): 0.0029 µM

Structure (SMILES): CC(C)(C)NC(=O)N(CCc1ccccc1)CC(O)C(Cc1ccccc1)NC(=O)C(CC(N)=O)NC(=O)OCc1ccccc1 (stereo not drawn) [Compound 4a, Butanediamide, N^1-[3-[[[(1,1-dimethylethyl)amino]carbonyl](2-phenylethyl)amino]-2-hydroxy-1-(phenylmethyl)propyl]-2-[(N-benzyloxycarbonyl)amino]-, [1S-[1R*(R*),2S*]]-]
IC50 (HIV protease; [3]): 0.07 µM

Structure (SMILES): CC(C)(C)NC(=O)N(CCc1ccccc1)CC(O)C(Cc1ccccc1)NC(=O)C(CC(N)=O)NC(=O)c1ccc2ccccc2n1 (stereo not drawn) [Compound 4b, Butanediamide, N^1-[3-[[[(1,1-dimethylethyl)amino]carbonyl](2-phenylethyl)amino]-2-hydroxy-1-(phenylmethyl)propyl]-2-[(2-quinolinylcarbonyl)amino]-, [1S-[1R*(R*),2S*]]-]
IC50 (HIV protease; [1]): 0.01 µM
IC50 (HIV protease; [2]): 0.01 µM
TD50 (CEM cells): 13 µM
EC50 (HIV-1): 0.028 µM

Structure (SMILES): CC(C)CCN(CC(O)C(Cc1ccccc1)NC(=O)C(CC(N)=O)NC(=O)c1ccc2ccccc2n1)C(=O)NC(C)(C)C (stereo not drawn) [Compound 5b, Butanediamide, N^1-[3-[[[(1,1-dimethylethyl)amino]carbonyl](3,3-dimethylpropyl)amino]-2-hydroxy-1-(phenylmethyl)propyl]-2-[(2-quinolinylcarbonyl)amino]-, [1S-[1R*(R*),2S*]]-]
IC50 (HIV protease; [3]): 0.0037 µM

Structure (SMILES): CC(C)CCN(CC(O)C(Cc1ccccc1)NC(=O)C(C)CS(C)(=O)=O)C(=O)NC(C)(C)C (stereo not drawn) [Compound 6, Propanamide, N-[3-[[[(1,1-dimethylethyl)amino]carbonyl](3-methylbutyl)amino]-2-hydroxy-1-(phenylmethyl)propyl]-2-methyl-3-(methylsulfonyl)-, [1S-[1R*(R*), 2S*]]-]
IC50 (HIV protease; [3]): 0.029 µM

Structure (SMILES): CC(=O)NCC(C)C(=O)NC(Cc1ccccc1)C(O)CN(CCC(C)C)C(=O)NC(C)(C)C (stereo not drawn) [Compound 7, Propanamide, 3-(acetylamino)-N-[3-[[[(11,-dimethylethyl)amino]carbonyl](3-methylbutyl)amino]-2-hydroxy-1-(phenylmethyl)propyl]-2-methyl-, [1S-[1R*(S*),2S*]]-]
IC50 (HIV protease; [3]): 0.1 µM

Structure (SMILES): COc1ccc(COC(=O)NC[C@@H](C)C(=O)N[C@@H](Cc2ccccc2)[C@H](O)CN(CCC(C)C)C(=O)NC(C)(C)C)cc1 [Compound 8, Propanamide, 3-(4-methoxybenzyloxy-carbonyl)amino-N-[3-[[[(11,-dimethylethyl)amino]carbonyl](3-methylbutyl)amino]-2-hydroxy-1-(phenylmethyl)propyl]-2-methyl-, [1S-[1R*(S*),2S*]]-]
IC50 (HIV protease; [1]): 0.006 µM

Structure (SMILES): NC(=O)CC(NC(=O)c1ccc2ccccc2n1)C(=O)NC(Cc1ccccc1)C(O)CN(Cc1ccc(F)cc1)C(=O)N1CCCC1 (stereo not drawn) [Compound 9, Butanediamide, N^1-[2-hydroxy-3-[(4-fluorophenylmethyl)(1-pyrrolidinylcarbonyl)amino]-1-(phenylmethyl)propyl]-2-[(2-quinolinylcarbonyl)amino]-, [1S-[1R*(R*),2S*]]-]
IC50 (HIV protease; [3]): 0.007 µM

IC50 (HIV protease; [3]): 0.012 µM
Structure (SMILES): CC(C)CCN(C[C@@H](O)[C@H](Cc1ccccc1)NC(=O)[C@H](C)C(C)(C)C(N)=O)C(=O)NC(C)(C)C [Compound 10, Butanediamide, N^1-[3-[[[(1,1-dimethylethyl)amino]carbonyl](3-methylbutyl)amino]-2-hydroxy-1-(phenylmethyl)propyl]-2,3,3-trimethyl-, [1S-[1R*(2S*),2S*]]-]

Structure (SMILES): CC(C)CCN(C[C@@H](O)[C@H](Cc1ccccc1)NC(=O)[C@H](C)C(C)(C)C(=O)O)C(=O)NC(C)(C)C [Compound 11, Butanoic acid, 4-[[3-[[[(1,1-dimethylethyl)amino]carbonyl] (3-methylbutyl)amino]-2-hydroxy-1-(phenylmethyl)propyl]amino-2,2,3-trimethyl-4-oxo-, [1S-[1R*(3S*), 2S*]]-]
IC50 (HIV protease; [1]): 0.008 µM

IC50 (HIV protease; [3]): 0.018 µM
Structure (SMILES): CC(=O)N[C@H](C(=O)N[C@@H](Cc1ccccc1)[C@H](O)CN(CCC(C)C)C(=O)NC(C)(C)C)C(C)(C)C [Compound 12, Butaneamide,2-(acetylamino)-N-[3-[[[(1,1-dimethylethyl)amino]-carbonyl](3-methylbutyl)amino]-2-hydroxy-1-(phenylmethyl)propyl]-3,3-dimethyl-, [1S-[1R*(R*),2S*]]-]

Structure (SMILES): CCCCNC(=O)N(CC(C)C)C[C@@H](O)[C@H](Cc1ccccc1)NC(=O)[C@H](CC(N)=O)NC(=O)c1ccc2ccccc2n1 [butanediamide N^1[3-[[[n-butylamino]carbonyl](2-methylpropyl)amino]-2-hydroxy-1-(phenylmethyl)propyl]-2-[(2-quinolinylcarbonyl)amino]-[1S-[1R*(R*), 2S*]]-.]
TD50 (CEM cells): 53 µM
EC50 (HIV-1): 0.026 µM
